These results are taken from ChEMBL document CHEMBL4334531, “Kalshinoids A-F, Anti-inflammatory Sesquiterpenes from Kalimeris shimadae” (J Nat Prod, 2019).

The IC50 is the point on the concentration scale where inhibition reaches its midpoint.

Calls of active or inactive are those of the source. The calls are words filed in the database; no cut-off is given here.

Data set [1] deals with THP-1. As to the kind of experiment: Antiinflammatory activity against human THP1 cells assessed as inhibition of LPS-induced TNFalpha production at 200 uM preincubated for 4 hrs followed by LPS challenge and measured after 24 hrs incubation by ELISA. It counts as functional, cell-based. (In general: In an ELISA, binding on a coated surface is turned into a signal by an enzyme label.)

Data set [2] concerns THP-1. In words: Antiinflammatory activity against human THP1 cells assessed as inhibition of LPS-induced TNFalpha production by measuring TFNalpha level at 5 uM preincubated for 4 hrs followed by LPS challenge and measured after 24 hrs incubation by ELISA. It counts as functional.
The test system of data set [3] is THP-1. In words: Antiinflammatory activity against human THP1 cells assessed as inhibition of LPS-induced TNFalpha production by measuring TFNalpha level at 10 uM preincubated for 4 hrs followed by LPS challenge and measured after 24 hrs incubation by ELISA. Type of data set: functional.
The subject of data set [4] is THP-1. In words: Cytotoxicity against human THP1 cells assessed as reduction in cell viability after 72 hrs by SRB assay. Type of data set: cell-based. The settings on record: THP-1, 72 h. On the technique in general: In SRB staining, fixed cells bind dye roughly in proportion to their protein.
Data set [5] is described as follows: Cytotoxicity against human THP1 cells assessed as cell viability at 40 uM after 72 hrs by SRB assay relative to control. It counts as cell-based. The settings on record: THP-1 cells, read-out: Activity.
In data set [6] the test system is THP-1. In words: Antiinflammatory activity against human THP1 cells assessed as inhibition of LPS-induced TNFalpha production preincubated for 4 hrs followed by LPS challenge and measured after 24 hrs incubation by ELISA. Type of data set: functional, cell-based.

In the case of `C[C@@H]1C[C@H]2[C@@H]3CCC4=CC(=O)C=C[C@]4(C)[C@@]3(F)[C@@H](O)C[C@]2(C)[C@@]1(O)C(=O)CO`, the inhibition result in data set [1] was “Active”.

Regarding `CC(C)(O)C1=CC[C@@](C)(O)[C@H]2CC[C@@](C)(O)[C@H]2C1`, the Activity came out at 699.2 pg/mL in data set [2] and 241.7 pg/mL in data set [3]. The half-inhibitory concentration (IC50) in data set [4] is greater than 40 µM. The viability at 72 h, 40 µM in data set [5] is greater than 80%. Besides, in data set [6], the inhibition result is “Dose-dependent effect”.

Consider `COC(C)(C)C1=CC[C@@](C)(O)[C@H]2CC[C@](C)(O)[C@H]2C1`, for which the Activity in data set [2] is 801.6 pg/mL; in data set [3] it was 722.2 pg/mL. Also, the half-maximal inhibitory concentration (IC50) in data set [4] is greater than 40 µM. Besides, the viability at 72 h, 40 µM in data set [5] is greater than 80%. In data set [6], the inhibition entry is “Dose-dependent effect”.

Take `C=C1CC[C@@H](O)[C@]2(C)CC[C@@](O)(C(C)(C)O)C[C@@H]12`: the Activity in data set [2] worked out at 394.3 pg/mL; in data set [3], 328.9 pg/mL. In data set [4], the concentration for half-maximal inhibition (IC50) is greater than 40 µM. In data set [5], the viability at 72 h, 40 µM was greater than 80%. In data set [6], the inhibition entry was “Dose-dependent effect”.
